For one series, the system named is LNCaP. Description: Anticancer activity against human LNCAP cells after 96 hrs by SRB assay. The series is classed as functional, cell-based. A general note: The SRB assay estimates cell density from bound dye.
The test system of a further series is A-375. Kind of series: Anticancer activity against human A375 cells after 96 hrs by SRB assay. The series is classed as functional, cell-based. The following applies: A-375, 96 h.
Another series deals with PPC-1. Description: Anticancer activity against human PPC1 cells after 96 hrs by SRB assay. The series is classed as functional, cell-based. The note with it: PPC-1, 96 h.
A short description of series [1]: Anticancer activity against mouse B16-F1 cells after 96 hrs by SRB assay. The following applies: B16-F1, 96 h. The series is classed as functional, cell-based.
For another series, the system named is DU-145. Kind of series: Anticancer activity against human DU145 cells after 96 hrs by SRB assay. The series is classed as functional, cell-based. The following applies: DU-145, 96 h.
The next series relates to PC-3. Kind of series: Anticancer activity against human PC3 cells after 96 hrs by SRB assay. The format is functional, cell-based. The note with it: PC-3, 96 h.
Series [2] can be described thus: Anticancer activity against human WM164 cells after 96 hrs by SRB assay. The note with it: WM164, 96 h. The format is functional, cell-based.
Series [3] in a line: AUC in Sprague-Dawley rat at 5 mg/kg, iv by LC-MS/MS analysis. The format is ADME, organism-based. Also on record: dose 5 mg/kg, route intravenous. The note with it: plasma.
A short description of series [4]: AUC in Sprague-Dawley rat at 10 mg/kg, po by LC-MS/MS analysis. The series is classed as ADME, organism-based. Also on record: dose 10 mg/kg, route oral. The following applies: plasma.
Series [5] has as its system OVCAR-8. Description: Resistance factor, ratio of IC50 for human NCI-ADR-RES cells to IC50 for drug-sensitive human OVCAR8 cells. The series is classed as functional.
The subject of another series is NCI/ADR-RES. Description: Anticancer activity against P-gp overexpressing human NCI/ADR-RES cells after 96 hrs by SRB assay. The format is functional, cell-based.
The subject of series [6] is OVCAR-8. Kind of series: Anticancer activity against human OVCAR8 cells after 96 hrs by SRB assay. The series is classed as functional, cell-based. The note with it: OVCAR-8, 96 h.
For another series, the system named is Rattus norvegicus. Description: Oral bioavailability in Sprague-Dawley rat at 4 mg/kg by LC-MS/MS analysis. The series is classed as ADME, organism-based. The following applies: in vivo.
Series [7] in a line: Aqueous solubility of the compound in PBS at 35 ug/ml and pH 7.4 by LC/MS/MS analysis. The series is classed as physicochemical. The following applies: buffer.
A short description of series [8]: Cmax in Sprague-Dawley rat at […], iv by LC-MS/MS analysis. The series is classed as ADME, organism-based. More on the design: dose 2.5 mg/kg, route intravenous. The note with it: in vivo.
Series [9] in a line: AUC in Sprague-Dawley rat at […], iv by LC-MS/MS analysis. The format is ADME, organism-based. More on the design: dose 2.5 mg/kg, route intravenous. The note with it: plasma.
The nature of series [10]: AUC in Sprague-Dawley rat at 4 mg/kg, po by LC-MS/MS analysis. The series is classed as ADME, organism-based. Also on record: dose 4 mg/kg, route oral. The following applies: plasma.
Series [11] in a line: Cmax in Sprague-Dawley rat at 4 mg/kg, po by LC-MS/MS analysis. The following applies: in vivo. More on the design: dose 4 mg/kg, route oral. The format is ADME, organism-based.
A further series concerns Liver microsomes. Kind of series: Half life in human liver microsomes. The format is ADME, Microsome. (In general: Liver microsomes are a subcellular fraction often used to study metabolism.)

Broadly, the IC50 is the concentration that inhibits the measured activity by half. Low readings indicate inhibition by little substance, high ones a need for much substance. In general, AUC refers to the area under the concentration-time curve, a measure of exposure. A higher AUC goes with high exposure. In general, Cmax refers to the peak of the concentration-time curve.

Bounds are passed on as bounds.

As to `COc1cc(C(=C(C)C)c2csc(-c3ccccc3)n2)cc(OC)c1OC`, the half-maximal inhibitory concentration (IC50) was 1390 nM with LNCaP; 1900 nM with A-375; 2040 nM in the series with PPC-1; 3800 nM in [1]; 2650 nM in the series with DU-145; 2470 nM in the series on PC-3. The same compound gave a half-inhibitory concentration (IC50) in series [2] of 3700 nM.

Regarding `COc1cc(C(=O)c2csc(Nc3ccc(F)cc3)n2)cc(OC)c1OC.Cl`, the values for the AUC in [3] and in series [4] were 6350 ng·h/mL and 2670 ng·h/mL, respectively.

As for `COc1cc(C(=O)c2csc(-c3ccc4[nH]ccc4c3)n2)cc(OC)c1OC`, the “Ratio IC50” value in the series on OVCAR-8 [5] is given as 0.4. The half-maximal inhibitory concentration (IC50) with NCI/ADR-RES worked out at 4 nM; with A-375, 8 nM; with PPC-1, 8 nM; in series [1], 25 nM; with DU-145, 13 nM; with PC-3 it was 7 nM. Besides, the half-inhibitory concentration (IC50) with OVCAR-8 [6] came out at 10 nM.

In the case of `COc1cc(C(=O)c2csc(Nc3ccc(F)cc3)n2)cc(OC)c1OC`, the 50% inhibitory concentration (IC50) in the series on LNCaP came out at 41 nM; with NCI/ADR-RES it was 25 nM; with DU-145, 63 nM; in the series on OVCAR-8 [6], 44 nM.

Regarding `COc1cc(C(=O)c2csc(-c3ccc(CN)cc3)n2)cc(OC)c1OC.Cl`, in the series on Rattus norvegicus, the F worked out at 0.2%. Moreover, the 50% inhibitory concentration (IC50) with LNCaP is 13 nM; with NCI/ADR-RES it was 11 nM; with A-375, 41 nM; with PPC-1, 34 nM; in series [1], 38 nM; with PC-3 it was 80 nM. In addition, half-maximal inhibition with OVCAR-8 [6] (IC50) required 26 nM. Moreover, the solubility result in series [7] is recorded as “soluble”. In addition, the Cmax in series [8] was determined as 3790 ng/mL; in series [11] it was 3.2 ng/mL. Moreover, the AUC is 2320 ng·h/mL in series [9] and 6.67 ng·h/mL in series [10].

For the compound `COc1cc(NS(=O)(=O)c2cccc(-c3ccccc3)c2)cc(OC)c1OC`, the IC50 (in the series with LNCaP; with A-375; in the series on PPC-1; in series [1]; in the series with DU-145; in the series with PC-3) was more than 10000 nM in each case. In [2], the IC50 was more than 10000 nM.

As to `COc1cc(C(=O)c2csc(-c3ccccc3)n2)cc(OC)c1OC`, the AUC in [9] was 4650 ng·h/mL; in [4], 617 ng·h/mL. Also, the IC50 in series [1] is 55 nM; in series [2] it was 64 nM; with OVCAR-8 [6], 35 nM.

Consider `COc1cc(/C(=C/C#N)c2csc(-c3ccccc3)n2)cc(OC)c1OC`, for which the concentration for half-maximal inhibition (IC50) in the series with LNCaP was 580 nM; in the series with A-375 it was 4600 nM; with PPC-1, 900 nM; in series [1], 5400 nM; in the series with DU-145 it was 2280 nM; in the series on PC-3 it was 890 nM. In series [2], this compound returned a 50% inhibitory concentration (IC50) of 4900 nM.

As for `COc1cc(C(=O)c2cccc(-c3ccccc3)n2)cc(OC)c1OC`, the IC50 with LNCaP was 27 nM; in the series with NCI/ADR-RES, 13 nM; with A-375, 30 nM; in the series on PPC-1, 25 nM; in series [1], 39 nM; in the series on OVCAR-8 [6] it was 33 nM. In addition, in the series with OVCAR-8 [5], the “Ratio IC50” value is 0.4.

As for `COc1cc([S+]([O-])c2cccc(-c3ccccc3)c2)cc(OC)c1OC` (stereo not given), the concentration for half-maximal inhibition (IC50) (in the series on LNCaP; in the series with A-375; in the series on PPC-1; in [1]; in the series on DU-145; in the series with PC-3) was more than 10000 nM in each case. The compound also returned an IC50 in series [2] of more than 10000 nM.

As for `COc1cc(/C(=C\C#N)c2csc(-c3ccccc3)n2)cc(OC)c1OC`, the IC50 with LNCaP came out at 1990 nM; in the series on A-375 it was 1200 nM; with PPC-1, 10000 nM; in series [1], 1200 nM; in the series with DU-145, 10000 nM; in the series with PC-3, 10000 nM. In series [2], this compound yielded an IC50 of 1000 nM.

For `COc1cc(C(=O)c2csc(Nc3ccccc3)n2)cc(OC)c1OC`, the 50% inhibitory concentration (IC50) in the series with LNCaP stood at 51 nM; in the series with NCI/ADR-RES, 27 nM; in the series with PPC-1 it was 54 nM; in series [1], 65 nM; in the series with DU-145, 70 nM; with PC-3, 57 nM. The half-inhibitory concentration (IC50) in the series on OVCAR-8 [6] was found to be 46 nM. Further, in the series with OVCAR-8 [5], the “Ratio IC50” value stood at 0.6.

In the case of `COc1cc(-c2csc(-c3ccccc3)n2)cc(OC)c1OC`, the half-maximal inhibitory concentration (IC50) (in the series with LNCaP; in the series on A-375; in the series on PPC-1; in series [1]; in the series with DU-145; with PC-3) was more than 10000 nM throughout. The compound also returned an IC50 in [2] of more than 10000 nM.

The compound `CC(=O)O[C@H]1C(=O)[C@@]2(C)[C@H]([C@H](OC(=O)c3ccccc3)[C@]3(O)C[C@H](OC(=O)[C@H](O)[C@@H](NC(=O)c4ccccc4)c4ccccc4)C(C)=C1C3(C)C)[C@]1(OC(C)=O)CO[C@@H]1C[C@@H]2O` [PACLITAXEL] showed a concentration for half-maximal inhibition (IC50) in the series with OVCAR-8 [6] of 4.7 nM.

As to `COc1cc(S(=O)(=O)c2cccc(-c3ccccc3)c2)cc(OC)c1OC`, the half-inhibitory concentration (IC50) (in the series with LNCaP; in the series on A-375; with PPC-1; in series [1]; in the series with DU-145; with PC-3) was more than 10000 nM in each case. This compound also came in with a concentration for half-maximal inhibition (IC50) in [2] of more than 10000 nM.

Consider `COc1cc(/C(=N\C#N)c2csc(-c3ccccc3)n2)cc(OC)c1OC`, for which the half-inhibitory concentration (IC50) in the series on LNCaP is 23 nM; in the series on NCI/ADR-RES, 14 nM; in the series with A-375, 28 nM; in the series with PPC-1, 20 nM; in series [1] it was 60 nM; in the series on DU-145, 42 nM. In addition, the half-inhibitory concentration (IC50) in the series with PC-3 is 27 nM; in series [2], 27 nM; with OVCAR-8 [6], 34 nM. In addition, in the series on OVCAR-8 [5], the “Ratio IC50” value is reported as 0.4. In the series with Liver microsomes, the t1/2 is listed as less than 5 min.

On to `COc1cc(C(=O)c2csc(Nc3ccccc3)n2)cc(OC)c1OC.Cl`, for which the AUC in [3] is 4930 ng·h/mL; in series [4] it was 1080 ng·h/mL.

On to `COc1cc(C(=O)c2csc(Nc3ccc(C)cc3)n2)cc(OC)c1OC`, for which the “Ratio IC50” value in the series with OVCAR-8 [5] is given as 0.8. The half-maximal inhibitory concentration (IC50) is 21 nM with NCI/ADR-RES and 28 nM with OVCAR-8 [6].

Take `COc1cc(Sc2cccc(-c3ccccc3)c2)cc(OC)c1OC`: the half-inhibitory concentration (IC50) in the series on LNCaP was 2300 nM; with A-375, 1600 nM; in the series with PPC-1, 2300 nM; in series [1], 2400 nM; with DU-145, more than 10000 nM; in the series with PC-3, more than 10000 nM. Moreover, in series [2], the half-maximal inhibitory concentration (IC50) turned out to be 2000 nM.

(Values after ChEMBL document CHEMBL1828586 (J Med Chem, 2011).)
